According to article PMC10033419, “Blocking NS3–NS4B interaction inhibits dengue virus in non-human primates” (Nature, 2023):
“And” between values parts separate entries of the source, which are not always exact repeats. Equal entries are not always repeated. Where two headings read alike, the source gives them in different places.

Key:
[1] = test system: DENV-3 G5 Brazil; format: cell-based; details: T108A in NS4B
[2] = Toxicity by high-content imaging; format: cell-based, Aedes albopictus; details: Aedes albopictus, C6/36 cells
Protocol: A potential toxic effect on host cells was tested in parallel, while omitting virus infection, using the MTS/PMS method (Promega) for Vero cells, or by high-content imaging for C6/36 cells, as described previously. […] RT–qPCR data were analysed using the QuantStudio 12K Flex software (v.1.2.3) or SDS v.1.2 Applied Biosystems software. Inhibition values for antiviral molecules were plotted using KaleidaGraph plotting software (v.4.03, Synergy Software).

[3] = test system: rVSV Indiana; assay: microbe, parasite or virus in culture; format: cell-based, recombinant vesicular stomatitis virus; details: Vesicular stomatitis virus, A549
[4] = test system: DENV-2 RL strain; assay: Day 3 viraemia model, high viral inoculum (10^6 PFU); format: in vivo, AG129 mice; details: for Av Log 10 (average): group average; for Av Log 10 (Ave/Med: median): group median; for Copy number / Log 10 (copy number): individual animals, listed as 64281802-AAA
[5] = Study 1+2+3 compiled data, 0,2 mg/kg/d
[6] = Study 1+2+3 compiled data, 0,6 mg/kg/d
[7] = Study 1+2+3 compiled data, 2 mg/kg/d
[8] = Study 1+2+3 compiled data, 2 mg/kg/d, 2 mg/kg/day
[9] = Study 1+2+3 compiled data, 6 mg/kg/d
[10] = Study 1+2+3 compiled data, 6 mg/kg/d, 6 mg/kg/day
[11] = Study 1+2+3 compiled data, 20 mg/kg/d
[12] = Study 1+2+3 compiled data, 20 mg/kg/d, 20 mg/kg/day
[13] = Study 1+2+3 compiled data, 60 mg/kg/d
[14] = Study 1+2+3 compiled data, 60 mg/kg/d, 60 mg/kg/day

COc1cc(N[C@H](C(=O)c2c[nH]c3ccc(OC(F)(F)F)cc23)c2ccc(Cl)cc2OC)cc(S(C)(=O)=O)c1 [JNJ-1802]
EC50 [1]: 0.0018 ± 0.0014 µM | EC90 [1]: 0.0038 ± 0.0011 µM | CC50 ([2]; C3/36 cells, mean, read-out: CC50 Mean): 14.4 µM | CC50 ([2]; C3/36 cells, read-out: CC50, individual values): 13.7 µM | CC50 ([2]; C6/36, read-out: CC50): 14.4 ± 1.1 µM | EC50 [3]: 6.9 µM | viraemia day 3 p.i., average Log 10 ([4]; 0,3 mg/kg/d q.d.): 6.63 log10 viral RNA copies/mL | viraemia day 3 p.i., median Log 10 ([4]; 0,3 mg/kg/d q.d.): 6.66 log10 viral RNA copies/mL | viraemia day 3 p.i., average Log 10 ([4]; 3 mg/kg/d q.d.): 3.84 log10 viral RNA copies/mL | viraemia day 3 p.i., median Log 10 ([4]; 3 mg/kg/d q.d.): 4.27 log10 viral RNA copies/mL | mice with undetectable viral RNA ([4]; 20 mg per kg per day b.i.d.): 13 out of 14 | mice with undetectable viral RNA ([4]; 30 mg per kg q.d.): five out of eight | viraemia day 3 p.i., average Log 10 ([4]; 30 mg/kg/d q.d.): 3.09 log10 viral RNA copies/mL | viraemia day 3 p.i., median Log 10 ([4]; 30 mg/kg/d q.d.): 2.59 log10 viral RNA copies/mL | mice with undetectable viral RNA ([4]; 60 mg per kg per day b.i.d.): four out of seven | Av Log 10 (average) [4, 5]: 5.92 | Av Log 10 (Ave/Med: median) [4, 5]: 6.05 | Copy number [4, 5]: 1.86E+06 and 1.20E+06 and 1.13E+06 and 8.80E+05 and 2.24E+05 and 2.37E+06 and 1.58E+06 and 7.37E+04 and 5.97E+06 and 8.67E+05 and 1.42E+06 and 1.06E+06 and 9.43E+04 | Log 10 (copy number) [4, 5]: 6.27 and 6.08 and 6.05 and 5.94 and 5.35 and 6.38 and 6.20 and 4.87 and 6.78 and 6.15 and 6.03 and 4.97 | Av Log 10 (average) [4, 6]: 4.22 | Av Log 10 (Ave/Med: median) [4, 6]: 4.52 | Copy number [4, 6]: 3.93E+02 | Log 10 (copy number) [4, 6]: 2.59 | Av Log 10 (average) [4, 7]: 4.68 | Av Log 10 (Ave/Med: median) [4, 7]: 4.60 | Copy number [4, 8]: 8.93E+05 and 4.00E+05 and 3.96E+05 and 1.24E+06 and 6.51E+05 and 1.32E+04 and 2.02E+05 and 2.06E+04 | Log 10 (copy number) [4, 8]: 5.95 and 5.60 and 6.09 and 5.81 and 3.95 | Av Log 10 (average) [4, 9]: 4.33 | Av Log 10 (Ave/Med: median) [4, 9]: 4.37 | Copy number [4, 10]: 5.85E+04 and 1.40E+05 and 1.03E+05 and 2.15E+04 and 1.94E+05 and 8.27E+04 and 1.06E+04 and 2.60E+04 and 9.12E+03 and 5.17E+03 and 3.62E+04 and 5.97E+03 and 3.93E+02 | Log 10 (copy number) [4, 10]: 4.77 and 5.15 and 5.01 and 4.33 and 5.29 and 4.92 and 4.03 and 4.41 and 3.96 and 3.71 and 4.56 and 4.11 and 3.78 and 2.59 | Av Log 10 (average) [4, 11]: 2.70 | Av Log 10 (Ave/Med: median) [4, 11]: 2.59 | Copy number [4, 12]: 1.05E+04 and 3.93E+02 | Log 10 (copy number) [4, 12]: 4.02 and 2.59 | Av Log 10 (average) [4, 13]: 3.05 | Av Log 10 (Ave/Med: median) [4, 13]: 2.59 | Copy number [4, 14]: 3.93E+02 and 1.22E+04 and 1.55E+03 and 5.28E+03 | Log 10 (copy number) [4, 14]: 2.59 and 4.09 and 3.19 and 3.72 | Av Log 10 (average) ([4]; Study 1 - 160222, 2 mg/kg/d): 5.30 | Av Log 10 (Ave/Med: median) ([4]; Study 1 - 160222, 2 mg/kg/d): 5.60 | Copy number ([4]; Study 1 - 160222, 2 mg/kg/d): 8.93E+05 and 4.00E+05 and 3.96E+05 and 1.24E+06 and 6.51E+05 and 1.32E+04 and 2.02E+05 | Log 10 (copy number) ([4]; Study 1 - 160222, 2 mg/kg/d): 5.95 and 5.60 and 6.09 and 5.81 and 3.95 and 4.12 and 5.30 | Av Log 10 (average) ([4]; Study 1 - 160222, 6 mg/kg/d): 4.74 | Av Log 10 (Ave/Med: median) ([4]; Study 1 - 160222, 6 mg/kg/d): 4.84 | Copy number ([4]; Study 1 - 160222, 6 mg/kg/d): 5.85E+04 and 1.40E+05 and 1.03E+05 and 2.15E+04 and 1.94E+05 and 8.27E+04 and 1.06E+04 and 2.60E+04 | Log 10 (copy number) ([4]; Study 1 - 160222, 6 mg/kg/d): 4.77 and 5.15 and 5.01 and 4.33 and 5.29 and 4.92 and 4.03 and 4.41
